From the supplement of paper PMC13207355

Columns and labels:
Conditions in all cases: exposure time: 72 h
[1] = system: E13 (patient-derived glioblastoma stem cells of classical subtype); assay: surviving fraction (nuclei count normalised to DMSO); higher = more cells surviving (less toxic)
[2] = system: E31 (patient-derived glioblastoma stem cells of proneural subtype); assay: as above
[3] = system: E57 (patient-derived glioblastoma stem cells of mesenchymal subtype); assay: as above
[4] = system: FT3469 (normal neural stem cell line); assay: as above
[5] = system: E28 (patient-derived glioblastoma stem cells of classical subtype); assay: as above
[6] = system: E21 (patient-derived glioblastoma stem cells of mesenchymal subtype); assay: as above
[7] = system: E34 (patient-derived glioblastoma stem cells of proneural subtype); assay: as above
[8] = system: E13; assay: phenotypic distance (Euclidean, principal components) from DMSO controls (arbitrary units); higher = stronger morphological change
[9] = system: E31; assay: as above
[10] = system: E57; assay: as above
[11] = system: FT3469; assay: as above
[12] = system: E28; assay: as above
[13] = system: E21; assay: as above
[14] = system: E34; assay: as above
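Throughout, for phenotypic distance (Euclidean, principal components) from DMSO controls: cell Painting imaging in 384-well plates, CellProfiler features reduced to at least 20 principal components, Euclidean distance versus same-plate DMSO vehicle wells (0.1% v/v), median over six images per well.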
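Throughout, for surviving fraction (nuclei count normalised to DMSO): nuclei counted by high-content imaging of Hoechst-stained cells in laminin-coated 384-well plates, relative to 0.1% DMSO vehicle wells, with staurosporine as cell-death control.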

SMILES: COc1ccc2c(c1)CC[C@@H]1[C@@H]2CC[C@]2(C)[C@@H](NCCCCCCN3C(=O)CCC3=O)CC[C@@H]12
- surviving fraction ([1]; 4.1 nM): 0.826
- surviving fraction ([1]; 12.3 nM): 0.95
- surviving fraction ([1]; 37 nM): 0.876
- surviving fraction ([1]; 111.1 nM): 0.929
- surviving fraction ([1]; 333.3 nM): 0.981
- surviving fraction ([1]; 1000 nM): 0.804
- surviving fraction ([1]; 3000 nM): 0.52
- surviving fraction ([2]; 4.1 nM): 0.965
- surviving fraction ([2]; 12.3 nM): 1.14
- surviving fraction ([2]; 37 nM): 0.985
- surviving fraction ([2]; 111.1 nM): 1.05
- surviving fraction ([2]; 333.3 nM): 1.06
- surviving fraction ([2]; 1000 nM): 0.962
- surviving fraction ([2]; 3000 nM): 0.624
- surviving fraction ([3]; 4.1 nM): 1.11
- surviving fraction ([3]; 12.3 nM): 1.04
- surviving fraction ([3]; 37 nM): 1.13
- surviving fraction ([3]; 111.1 nM): 1.13
- surviving fraction ([3]; 333.3 nM): 1.17
- surviving fraction ([3]; 1000 nM): 1.11
- surviving fraction ([3]; 3000 nM): 0.936
- surviving fraction ([4]; 4.1 nM): 0.984
- surviving fraction ([4]; 12.3 nM): 1.11
- surviving fraction ([4]; 37 nM): 1.03
- surviving fraction ([4]; 111.1 nM): 1.11
- surviving fraction ([4]; 333.3 nM): 1.06
- surviving fraction ([4]; 1000 nM): 0.922
- surviving fraction ([4]; 3000 nM): 0.983
- surviving fraction ([5]; 4.1 nM): 1.09
- surviving fraction ([5]; 12.3 nM): 1.03
- surviving fraction ([5]; 37 nM): 1.03
- surviving fraction ([5]; 111.1 nM): 1.09
- surviving fraction ([5]; 333.3 nM): 1.1
- surviving fraction ([5]; 1000 nM): 1.01
- surviving fraction ([5]; 3000 nM): 0.973
- surviving fraction ([6]; 4.1 nM): 1.03
- surviving fraction ([6]; 12.3 nM): 0.961
- surviving fraction ([6]; 37 nM): 0.951
- surviving fraction ([6]; 111.1 nM): 1.13
- surviving fraction ([6]; 333.3 nM): 1.06
- surviving fraction ([6]; 1000 nM): 0.867
- surviving fraction ([6]; 3000 nM): 0.645
- surviving fraction ([7]; 4.1 nM): 0.876
- surviving fraction ([7]; 12.3 nM): 0.901
- surviving fraction ([7]; 37 nM): 1.13
- surviving fraction ([7]; 111.1 nM): 0.957
- surviving fraction ([7]; 333.3 nM): 0.939
- surviving fraction ([7]; 1000 nM): 0.979
- surviving fraction ([7]; 3000 nM): 0.986
- phenotypic distance ([8]; 4.1 nM): 1.07
- phenotypic distance ([8]; 12.3 nM): 0.714
- phenotypic distance ([8]; 37 nM): 0.93
- phenotypic distance ([8]; 111.1 nM): 1.11
- phenotypic distance ([8]; 333.3 nM): 1.31
- phenotypic distance ([8]; 1000 nM): 2.29
- phenotypic distance ([8]; 3000 nM): 3.72
- phenotypic distance ([9]; 4.1 nM): 0.697
- phenotypic distance ([9]; 12.3 nM): 0.31
- phenotypic distance ([9]; 37 nM): 0.566
- phenotypic distance ([9]; 111.1 nM): 0.735
- phenotypic distance ([9]; 333.3 nM): 1.61
- phenotypic distance ([9]; 1000 nM): 2.54
- phenotypic distance ([9]; 3000 nM): 6.23
- phenotypic distance ([10]; 4.1 nM): 3.52
- phenotypic distance ([10]; 12.3 nM): 0.302
- phenotypic distance ([10]; 37 nM): 0.424
- phenotypic distance ([10]; 111.1 nM): 0.621
- phenotypic distance ([10]; 333.3 nM): 1.22
- phenotypic distance ([10]; 1000 nM): 1.78
- phenotypic distance ([10]; 3000 nM): 2.68
- phenotypic distance ([11]; 4.1 nM): 0.686
- phenotypic distance ([11]; 12.3 nM): 0.245
- phenotypic distance ([11]; 37 nM): 0.58
- phenotypic distance ([11]; 111.1 nM): 0.496
- phenotypic distance ([11]; 333.3 nM): 0.408
- phenotypic distance ([11]; 1000 nM): 0.646
- phenotypic distance ([11]; 3000 nM): 0.711
- phenotypic distance ([12]; 4.1 nM): 0.61
- phenotypic distance ([12]; 12.3 nM): 0.49
- phenotypic distance ([12]; 37 nM): 0.46
- phenotypic distance ([12]; 111.1 nM): 0.724
- phenotypic distance ([12]; 333.3 nM): 0.645
- phenotypic distance ([12]; 1000 nM): 0.805
- phenotypic distance ([12]; 3000 nM): 2.44
- phenotypic distance ([13]; 4.1 nM): 0.642
- phenotypic distance ([13]; 12.3 nM): 0.74
- phenotypic distance ([13]; 37 nM): 0.741
- phenotypic distance ([13]; 111.1 nM): 0.893
- phenotypic distance ([13]; 333.3 nM): 0.934
- phenotypic distance ([13]; 1000 nM): 1.42
- phenotypic distance ([13]; 3000 nM): 4.65
- phenotypic distance ([14]; 4.1 nM): 1.13
- phenotypic distance ([14]; 12.3 nM): 0.657
- phenotypic distance ([14]; 37 nM): 0.637
- phenotypic distance ([14]; 111.1 nM): 0.671
- phenotypic distance ([14]; 333.3 nM): 0.968
- phenotypic distance ([14]; 1000 nM): 1.06
- phenotypic distance ([14]; 3000 nM): 0.95

SMILES: Cc1cc(CN)cc(C)c1NC(=O)c1ccc(-c2cc(Cl)ccc2Cl)o1
- surviving fraction ([1]; 3000 nM): 0.865
- surviving fraction ([2]; 3000 nM): 0.856
- surviving fraction ([3]; 3000 nM): 0.964
- surviving fraction ([4]; 3000 nM): 0.883
- surviving fraction ([5]; 3000 nM): 0.919
- surviving fraction ([6]; 3000 nM): 0.862
- surviving fraction ([7]; 3000 nM): 0.829
- phenotypic distance ([8]; 3000 nM): 1.34
- phenotypic distance ([9]; 3000 nM): 1.86
- phenotypic distance ([10]; 3000 nM): 1.29
- phenotypic distance ([11]; 3000 nM): 0.784
- phenotypic distance ([12]; 3000 nM): 0.815
- phenotypic distance ([13]; 3000 nM): 0.968
- phenotypic distance ([14]; 3000 nM): 0.825
